Results from paper PMC11040665, “Aminothiazolone Inhibitors Disrupt the Protein–RNA Interaction of METTL16 and Modulate the m^6A RNA Modification” (JACS Au, 2024).
Entries after “also recorded” stand apart in the source; their conditions may differ.

T1: METTL16 MTD–MAT2A-hp1 RNA interaction (Homo sapiens, UniProt Q86W50)
T1 sequence (Q86W50 1-291): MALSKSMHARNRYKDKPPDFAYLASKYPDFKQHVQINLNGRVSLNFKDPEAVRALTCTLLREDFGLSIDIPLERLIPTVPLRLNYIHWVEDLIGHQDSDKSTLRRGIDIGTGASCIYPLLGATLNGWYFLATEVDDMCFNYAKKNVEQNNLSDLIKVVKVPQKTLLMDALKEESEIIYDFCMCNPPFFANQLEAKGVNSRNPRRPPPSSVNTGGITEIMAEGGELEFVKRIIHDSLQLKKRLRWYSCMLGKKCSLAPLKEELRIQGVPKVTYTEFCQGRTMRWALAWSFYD

T2: METTL16–MAT2A-hp1 mRNA interaction (METTL16 MTD 1–291, FAM-labeled MAT2A-hp1 RNA) (Homo sapiens, UniProt Q86W50)
T2 sequence (Q86W50 1-291): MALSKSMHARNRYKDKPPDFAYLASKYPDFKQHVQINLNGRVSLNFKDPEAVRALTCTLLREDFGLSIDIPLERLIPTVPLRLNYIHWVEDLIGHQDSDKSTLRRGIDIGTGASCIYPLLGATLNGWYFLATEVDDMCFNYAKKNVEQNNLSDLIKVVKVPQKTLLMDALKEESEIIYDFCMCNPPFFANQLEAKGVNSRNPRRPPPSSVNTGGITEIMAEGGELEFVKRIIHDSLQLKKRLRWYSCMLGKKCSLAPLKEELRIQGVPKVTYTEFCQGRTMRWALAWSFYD

T3: methyltransferase activity of METTL16 MTD toward MAT2A-hp1 (Homo sapiens, UniProt Q86W50)
T3 construct: METTL16 MTD (1–291) was subcloned to pOPINB plasmid; His tag followed by HRV 3C cleavage site (N, cleaved yes); made in house; host or cells: E. coli Rosetta (DE3)
T3 sequence (Q86W50 1-291): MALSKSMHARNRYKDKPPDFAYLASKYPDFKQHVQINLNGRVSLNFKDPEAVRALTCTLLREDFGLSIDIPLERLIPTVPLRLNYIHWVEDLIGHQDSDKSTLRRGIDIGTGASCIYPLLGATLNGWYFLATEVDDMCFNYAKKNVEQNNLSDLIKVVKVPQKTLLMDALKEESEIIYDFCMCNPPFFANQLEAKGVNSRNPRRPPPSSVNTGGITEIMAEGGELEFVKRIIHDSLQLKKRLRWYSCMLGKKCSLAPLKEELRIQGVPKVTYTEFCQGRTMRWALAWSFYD

T4: METTL16 MTD–U6 snRNA Δ interaction (Homo sapiens, UniProt Q86W50)
T4 construct: METTL16 MTD (1–291) was subcloned to pOPINB plasmid; His tag followed by HRV 3C cleavage site (N, cleaved yes); made in house; host or cells: E. coli Rosetta (DE3)
T4 sequence (Q86W50 1-291): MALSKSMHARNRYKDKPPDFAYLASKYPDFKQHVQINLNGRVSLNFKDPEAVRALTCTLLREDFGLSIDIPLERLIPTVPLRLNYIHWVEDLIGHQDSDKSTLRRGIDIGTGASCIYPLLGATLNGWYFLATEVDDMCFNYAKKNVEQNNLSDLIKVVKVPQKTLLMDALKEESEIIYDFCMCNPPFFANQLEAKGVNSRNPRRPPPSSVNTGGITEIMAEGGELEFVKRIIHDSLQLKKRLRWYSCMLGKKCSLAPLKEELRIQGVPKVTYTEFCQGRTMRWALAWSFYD

T5: METTL16 MTD–GGACU-containing RNA interaction (Homo sapiens, UniProt Q86W50)
T5 sequence (Q86W50 1-291): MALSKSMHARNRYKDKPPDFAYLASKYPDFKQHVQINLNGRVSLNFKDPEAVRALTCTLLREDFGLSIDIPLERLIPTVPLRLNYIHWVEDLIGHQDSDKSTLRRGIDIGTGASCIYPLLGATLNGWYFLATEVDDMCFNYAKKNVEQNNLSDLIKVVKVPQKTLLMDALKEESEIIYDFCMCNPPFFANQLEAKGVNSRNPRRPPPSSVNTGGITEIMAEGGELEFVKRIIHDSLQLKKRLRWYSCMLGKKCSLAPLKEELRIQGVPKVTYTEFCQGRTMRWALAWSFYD

T6: METTL16 (1-291) (Homo sapiens, UniProt Q86W50)
T6 construct: METTL16 MTD (1–291) was subcloned to pOPINB plasmid; His tag followed by HRV 3C cleavage site (N, cleaved yes); made in house; host or cells: E. coli Rosetta (DE3)
T6 sequence (Q86W50 1-291): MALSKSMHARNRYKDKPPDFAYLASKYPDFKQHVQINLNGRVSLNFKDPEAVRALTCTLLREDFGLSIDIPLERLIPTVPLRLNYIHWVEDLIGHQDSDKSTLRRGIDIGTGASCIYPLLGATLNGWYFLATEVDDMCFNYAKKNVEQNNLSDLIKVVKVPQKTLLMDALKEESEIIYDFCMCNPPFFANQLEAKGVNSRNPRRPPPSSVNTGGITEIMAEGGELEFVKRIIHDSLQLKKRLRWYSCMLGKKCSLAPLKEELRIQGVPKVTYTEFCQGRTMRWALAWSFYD

T7: METTL16 (1-291)–FAM-MAT2A-hp1 RNA (Homo sapiens, UniProt Q86W50)
T7 construct: METTL16 MTD (1–291) was subcloned to pOPINB plasmid; His tag followed by HRV 3C cleavage site (N, cleaved yes); made in house; host or cells: E. coli Rosetta (DE3)
T7 sequence (Q86W50 1-291): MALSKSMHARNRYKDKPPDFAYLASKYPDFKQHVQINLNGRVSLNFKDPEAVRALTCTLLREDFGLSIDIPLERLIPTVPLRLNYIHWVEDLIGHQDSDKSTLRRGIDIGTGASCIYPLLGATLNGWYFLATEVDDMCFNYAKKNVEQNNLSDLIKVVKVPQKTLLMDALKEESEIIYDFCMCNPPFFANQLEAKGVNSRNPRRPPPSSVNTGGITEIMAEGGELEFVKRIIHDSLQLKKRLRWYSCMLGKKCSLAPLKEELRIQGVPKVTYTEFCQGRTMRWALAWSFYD

T8: METTL16 MTD (methyltransferase domain) (Homo sapiens, UniProt Q86W50 1-291)
T8 sequence: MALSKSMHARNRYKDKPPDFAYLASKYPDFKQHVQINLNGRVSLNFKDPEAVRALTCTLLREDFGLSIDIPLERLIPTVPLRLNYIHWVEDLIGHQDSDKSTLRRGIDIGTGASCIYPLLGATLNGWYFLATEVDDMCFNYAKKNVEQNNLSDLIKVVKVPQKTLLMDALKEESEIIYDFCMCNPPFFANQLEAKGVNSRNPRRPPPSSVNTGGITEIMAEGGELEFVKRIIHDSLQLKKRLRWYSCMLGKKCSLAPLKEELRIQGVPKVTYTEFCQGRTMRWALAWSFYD


How the values were obtained:
[1] = biological target: T1, METTL16 MTD–MAT2A-hp1 RNA interaction; test: Electrophoretic mobility shift assay (EMSA) with FAM-MAT2A-hp1 RNA; details: 50 nM METTL16, 5 nM FAM-MAT2A-hp1
Method: METTL16 MTD protein (1–291) was incubated with the indicated compound or DMSO in a buffer containing 20 mM HEPES, pH 7.5, 50 mM NaCl, 0.05% v/v Tween 20, and 0.05 mg/mL BGG at room temperature for 30 min; subsequently, FAM-MAT2A-hp1 RNA probe was added and incubated at room temperature for 10 min, the final of protein and RNA are 50 and 5 nM respectively, and 1% DMSO was used as the control. […] The gel was detected and imaged by Chemi Doc MP (Bio-Rad).

[2] = biological target: T2, METTL16–MAT2A-hp1 mRNA interaction (METTL16 MTD 1–291, FAM-labeled MAT2A-hp1 RNA); test: Fluorescence polarization (FP) assay, disruption of METTL16 binding to FAM-MAT2A-hp1 RNA
Method: The binding of METTL16 to the FAM-labeled RNA probe formed a complex that led to a higher FP signal in comparison to that of the unbound RNA probe (Figure 2A). […] The Z-factor of 0.91 indicated the suitability of the assay condition (Figure S2D). […] In both FP assay and EMSA, a final concentration of 50 nM METTL16 and 5 nM FAM-MAT2A-hp was used. The METTL16 MTD (amino acids 1–291) was used in this study unless specifically indicated otherwise.
The FP assay was performed using 384-well black plates (Corning #4514) in a total reaction volume of 20 μL, with the final concentration of protein and RNA being 50 and 5 nM respectively. Compounds were diluted in FP buffer and incubated with protein for 30 min at room temperature, then FAM-MAT2A-hp1 RNA probe was added and the fluorescence polarization was measured using a TECAN Spark plate reader, under the excitation wavelength of 485 nm and the emission wavelength of 535 nm with bandwidth of 20 nm. 1% DMSO was used as the control. The inhibition was calculated with the equation: inhibition = 100%(Control – X)/(Control – Blank); Control: DMSO with protein and FAM-RNA; Blank: DMSO with FAM-RNA; X: compound with protein and FAM-RNA. The IC50 value was further determined using GraphPad Prism 9. […] The polarization was measured under an excitation wavelength of 630 nm and an emission wavelength of 680 nm with a bandwidth of 20 nm.

[3] = biological target: T3, methyltransferase activity of METTL16 MTD toward MAT2A-hp1; test: In vitro methylation assay (MTase Glo); format: biochemical; details: RNA substrate MAT2A-hp1
Method: Next, we evaluated the inhibition of the METTL16 methylation using the MTase Glo assay kit (Promega) measuring the methyltransferase activity based on the formation of the methylation product S-adenosyl homocysteine, which was converted to ADP by the MTase-Glo reagent to trigger a subsequent luciferase reaction (Figure 5E).
The methyltransferase activity of METTL16 MTD was measured using an MTase Glo kit (Promega V7601) following the manufacturer’s instructions. The reaction was carried out in white 384-well plates (Corning #3824), with a total methyltransferase reaction volume of 8 μL, and the final concentrations of METTL16 MTD, MAT2A-hp1, and SAM were 1, 1, and 10 μM, respectively, and 1% of DMSO was used as a control. […] To use SAM at a different final concentration, the concentration of SAM was adjusted accordingly in a 2× substrate solution.

[4] = biological target: T4, METTL16 MTD–U6 snRNA Δ interaction; test: FP assay with Cy5-labeled U6 snRNA Δ; format: binding
MDA-MB-231 cells [5] = test: Cell viability, MDA-MB-231; format: cell-based, human
MDA-MB-231 cells [6] = test: Colony formation assay; format: cell-based, human; details: 7 days, three tested concentrations
Method: MDA-MB-231 cells were collected and seeded with the density of 1000 cells per well into 24-well plates; after being cultured overnight, the medium was exchanged and treated with indicated compounds or DMSO (0.5%) as the control. The medium change and treatment were performed every 3 days. After 7 days, the cell culture medium was discarded, and cells were washed with PBS and fixed with 4% paraformaldehyde solution at room temperature for 15 min; the paraformaldehyde solution was removed, and cells were washed with PBS again to remove the paraformaldehyde. Then cells were stained with 0.1% (w/v) crystal violet. After staining for 15 min, the cells were washed with H2O to remove the extra dye and then photographed.

[7] = biological target: T5, METTL16 MTD–GGACU-containing RNA interaction; test: EMSA with GGACU-containing RNA; details: 5 nM RNA, 600 nM METTL16 MTD
Method: METTL16 MTD protein (1–291) was incubated with the indicated compound or DMSO in a buffer containing 20 mM HEPES, pH 7.5, 50 mM NaCl, 0.05% v/v Tween 20, and 0.05 mg/mL BGG at room temperature for 30 min; subsequently, FAM-MAT2A-hp1 RNA probe was added and incubated at room temperature for 10 min, the final of protein and RNA are 50 and 5 nM respectively, and 1% DMSO was used as the control. […] The gel was detected and imaged by Chemi Doc MP (Bio-Rad). […] EMSA for testing compounds with GGAUC-motif containing RNA and METTL16 MTD interaction was performed using the method described above, expecting that the final of METTL16 MTD protein and FAM-labeled-GGACU RNA are 600 nM and 5 nM respectively. EMSA for RNA binding: indicated concentrations of fluorophore-labeled RNA were incubated with indicated concentrations of protein in EMSA buffer for 15 min at room temperature, then loaded to native PAGE gels and imaged with the method described above.

METTL16 (1-291) = biological target: T6, METTL16 (1-291); test: Covalent binding evaluation by protein LC–MS; details: 30 μM METTL16 (1-291), 100 μM compound, 30 or 150 min
Method: To evaluate whether the aminothiazolones covalently bind to METTL16, we performed the LC–MS analysis after incubating the protein with aminothiazolones for 30 and 150 min, respectively. In the case of covalent binding, we would expect to observe the formation of covalent adducts, which would accrue over time. […] Besides the LC–MS analysis result, an irreversible inhibition counter screening indicated the reversible inhibitory activity of the aminothiazolones (Figure S8A).
Figure S7. Covalent evaluation of METTL16 inhibitors via LC-MS. (A) Deconvoluted mass spectrum of 30 µM METTL16 (1-291) incubated with 1% DMSO for 30 min (left) and 150 min (right). (B), (C), (D) Deconvoluted […]
(right). Expected Mass for METTL16 (1-291), 33455.7 Da. The observed small mass shift of ~50 Da appeared in both the DMSO control and compound-treated samples was probably formed by the solvent used in the LC-MS.
(1 picture or pasted object on this page, not shown here)
For computational docking analysis of aminothiazolones to the RNA binding site of METTL16 (PDB code: 6B91)2 Schrödinger® Maestro 12.3 was used. […]
Chemical states were generated with the ligand preparation module and METTL16 conformation with the protein preparation module. […] The glide dock module was used and the results were evaluated according to interactions between small molecules and METTL16, small molecule orientations, docking scores and solvent exposure patterns. […]
METTL16 MTD protein was diluted in SEC buffer (20mM pH 7.5, 200 mM NaCl, 0.5 mM TCEP,5% v/v glycerol) to a final concentration of 30 µM, and incubated with DMSO or 100 μM compound (final 1% DMSO) at room temperature. After incubation (30 min or 150 min), the samples were analyzed on an Agilent 1260 II Infinity system equipped with an electrospray ion source in positive mode, run through a Desalting cartridge (AdvanceBio Desalting-RP, 2.1 mm, 12.5mm, Agilent) with a gradient of 5-80% HPLC-grade acetonitrile (+ 0.1% TFA) in HPLC-grade water (+ 0.1% TFA) (flowrate: 0.4 mL/min, runtime: 6 min). […]

[8] = biological target: T7, METTL16 (1-291)–FAM-MAT2A-hp1 RNA; test: FP assay after incubating SAM with METTL16; format: binding; details: SAM incubated with METTL16 before the FP assay
[9] = biological target: T8, METTL16 MTD (methyltransferase domain); test: competition FP; vs FAM-MAT2A-hp1; 20 mM HEPES pH 7.5, 50 mM NaCl, 0.05% Tween 20, 0.05 mg/mL BGG, room temperature; EMSA 6.6% native PAGE 0.5x TBE at 4 C; details: protein: recombinant; tags: N-terminal His tag removed by HRV 3C (His-tagged form also purified)
[10] = biological target: T8, METTL16 MTD (methyltransferase domain); test: competition FP; vs FAM-MAT2A-hp1; more potent than GGACU-RNA and pre-miR-17-hp bp; 20 mM HEPES pH 7.5, 50 mM NaCl, 0.05% Tween 20, 0.05 mg/mL BGG, room temperature; EMSA 6.6% native PAGE 0.5x TBE at 4 C; details: protein: recombinant, tags: N-terminal His tag removed by HRV 3C (His-tagged form also purified)

| Molecule | IC50 [2] [nM] | inhibition of the methyltransferase activity of METTL16 MTD, in words [3] | IC50 [4] [nM] | inhibition on colony formation, in words (MDA-MB-231 cells [6]) | inhibition of METTL16–GGACU RNA binding in EMSA, in words [7] | further results |
| --- | --- | --- | --- | --- | --- | --- |
| COc1ccc(S(=O)(=O)NC2=NC(=O)C(=C3C(=O)Nc4ccc(Cl)cc43)S2)cc1 [Compound 1] | 16300 |  |  |  |  | disruption of METTL16–MAT2A-hp1 RNA binding in EMSA, in words [1]: dose-dependent inhibition |
| O=C1N=C(NS(=O)(=O)c2ccc(C(=O)O)cc2)SC1=C1C(=O)Nc2ccc(Cl)cc21 [Compound 27] | 2700 | dose-dependently inhibited; also recorded: potent inhibitory activity | 6600 | mild inhibitory activity against colony formation | dose-dependently inhibited | effect on cell viability, in words (MDA-MB-231 cells [5]): mild antiviability effect |
| CN1C(=O)C(=C2SC(NS(=O)(=O)c3ccc(C(=O)O)cc3)=NC2=O)c2cc([N+](=O)[O-])ccc21 [Compound 46] | 2000 | dose-dependently inhibited; also recorded: potent inhibitory activity | 2800 | did not show obvious inhibition on colony formation | dose-dependently inhibited | covalent adduct formation with METTL16 (LC–MS) (METTL16 (1-291)): no such covalent adduct with a mass shift was observed; IC50 under different SAM concentrations (FP assay), in words [8]: remained |
| UUCUUCUGUGGACUGUG (ssRNA) [GGACU-RNA (unlabeled)] |  |  |  |  |  | IC50 [9]: 814 nM |
| GUGCAGGUAGUGAUAUGUGCAUCUACUGCAC (structured_RNA) [pre-miR-17-hp] |  |  |  |  |  | binding result ([10]; hairpin with two bulges): binds |
| GGGUUGACUGUUGAAUCUCAUGGCAACCC (structured_RNA) [pre-miR-21-hp] |  |  |  |  |  | binding result ([10]; hairpin): binds |
